The values that follow come from publication PMC6943578, “Isolation of Novel ACE-Inhibitory and Antioxidant Peptides from Quinoa Bran Albumin Assisted with an In Silico Approach: Characterization, In Vivo Antihypertension, and Molecular Docking” (Molecules, 2019).

One data set concerns the target T1, ACE (from rabbit lung) (Oryctolagus cuniculus, UniProt P12822).
T1 construct: ACE (from rabbit lung) were purchased from Sigma-Aldrich Co; purchased Sigma-Aldrich Co; host or cells: rabbit lung tissue
T1 sequence (P12822 34-1310): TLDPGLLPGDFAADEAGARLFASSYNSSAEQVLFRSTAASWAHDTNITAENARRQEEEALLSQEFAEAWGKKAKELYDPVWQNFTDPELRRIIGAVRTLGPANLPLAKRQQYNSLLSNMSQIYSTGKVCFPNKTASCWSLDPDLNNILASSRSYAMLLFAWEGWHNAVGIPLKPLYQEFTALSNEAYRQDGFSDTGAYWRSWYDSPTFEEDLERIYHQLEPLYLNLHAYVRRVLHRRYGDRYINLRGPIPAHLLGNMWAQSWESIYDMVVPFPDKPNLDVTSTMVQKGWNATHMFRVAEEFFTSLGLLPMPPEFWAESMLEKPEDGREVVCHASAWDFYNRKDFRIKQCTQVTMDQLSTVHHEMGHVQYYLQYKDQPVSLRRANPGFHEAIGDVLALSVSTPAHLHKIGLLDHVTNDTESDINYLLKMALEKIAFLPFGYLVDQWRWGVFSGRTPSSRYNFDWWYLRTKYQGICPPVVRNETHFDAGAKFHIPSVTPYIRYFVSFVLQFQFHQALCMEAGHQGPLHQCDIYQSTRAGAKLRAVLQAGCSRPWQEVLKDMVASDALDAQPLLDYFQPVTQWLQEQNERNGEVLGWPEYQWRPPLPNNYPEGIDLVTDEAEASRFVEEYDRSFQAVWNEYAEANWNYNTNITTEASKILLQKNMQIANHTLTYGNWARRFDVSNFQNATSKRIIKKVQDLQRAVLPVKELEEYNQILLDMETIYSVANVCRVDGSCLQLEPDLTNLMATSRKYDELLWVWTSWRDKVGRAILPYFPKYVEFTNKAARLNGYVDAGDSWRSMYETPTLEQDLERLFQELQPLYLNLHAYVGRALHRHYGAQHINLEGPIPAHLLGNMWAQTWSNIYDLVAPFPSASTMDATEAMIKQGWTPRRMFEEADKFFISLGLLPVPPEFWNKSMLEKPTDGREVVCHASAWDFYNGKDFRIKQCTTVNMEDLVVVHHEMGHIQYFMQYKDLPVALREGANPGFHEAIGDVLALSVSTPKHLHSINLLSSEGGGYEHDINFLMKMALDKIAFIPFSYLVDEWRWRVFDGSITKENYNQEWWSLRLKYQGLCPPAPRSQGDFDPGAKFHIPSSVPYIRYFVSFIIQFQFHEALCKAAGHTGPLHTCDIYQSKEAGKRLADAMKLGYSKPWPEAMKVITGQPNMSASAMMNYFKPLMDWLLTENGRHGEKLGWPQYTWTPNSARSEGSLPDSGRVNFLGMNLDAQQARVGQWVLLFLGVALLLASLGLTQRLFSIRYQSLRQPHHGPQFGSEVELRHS
Kind of data set: ACE-inhibitory activity, HHL substrate, spectrophotometric. The following applies: synthetic peptide, 37 °C, 1 h, absorbance at 228 nm, from regression of % inhibition vs concentration, repeated at least three times. The data set is classed as biochemical. Here is the method: The ACE-inhibitory activity was evaluated using HHL as a substrate by monitoring the released hippuric acid using a spectrophotometric method. Briefly, the reaction system comprised 50 µL of ACE (25 mU), 150 µL of 8.3 mM HHL, and 50 µL of sample solutions. After incubation in a shaking water bath (37 °C) for 1 h, 1 M HCl (250 µL) was added to stop the reaction. The hippuric acid formed was subsequently extracted by 1.4 mL ethyl acetate. After centrifugation, 1 mL of the supernatant was collected and evaporated at 80 °C for 60 min in a vacuum. The residue was then dissolved in 2 mL of distilled water and the absorbance at 228 nm was read. The inhibitory activity was calculated as follows:(1) ACE inhibition % = 1− AS/AC ×100, where AC is the absorbance of the ACE solution without an inhibitor and AS is the absorbance of the mixture-contained samples. The IC50 value, the inhibitor concentration required to inhibit half the ACE activity, was acquired by nonlinear regression from a plot of percentage ACE inhibition versus different inhibitor concentrations.

In data set [1] the test system is spontaneously hypertensive rats (SHRs). Briefly: Body weight of SHRs during administration. It is filed as in vivo, rat. The following applies: oral 50, 100, 150 mg/kg once daily, five weeks; p > 0.05.
Experimental: Following the method indicated by Zou et al. [26] with some modifications, 20 male SHRs (10 weeks, 230 ± 20 g body weight (bw)) were purchased from Vital River Laboratory Animal Technology Co., Ltd (Beijing, China). After conditioning for one week, the rats were divided into five groups of four rats each. […] High dosage group (150 mg/kg body weight once daily), middle dosage group (100 mg/kg body weight once daily), and low dosage group (50 mg/kg body weight once daily) were orally given the peptide dissolved in 0.9% saline solution via gastric intubation. All of the treatments were conducted for five consecutive weeks. Each week, the systolic blood pressure (SBP) and diastolic blood pressure (DBP) of the rats were measured with a non-invasive blood-pressure apparatus (BP-300A Non-Invasive Blood Pressure Monitoring System, Chengdu, China). The body weight and heart rate of the rats were determined at the same time. At least five readings were recorded and averaged out.
The conditions of data set [2]: read-out: ABTS·+ scavenging ability IC50; cited from earlier work. From the text:
ABTS·^+ scavenging activity represents the total antioxidant activity of potential antioxidants. […] Moreover, the presence of hydrophobic amino ...

The conditions of data set [3]: cited from earlier work. An excerpt: The presence of some metal ions like Fe^2+ and Cu^2+ can extremely accelerate the oxidative chain reaction of oil and induce the production of more various radicals. […] It was pointed out that amino acid residues such as Pro, Phe, and Arg in the side chain could act a ...
The subject of another data set is ACE. The arrangement: method as in 2 sources, one per row (each row's own in cited_ref): ref 6 = [6]; PMID 28317757; doi:10.1016/j.foodchem.2017.02.039; 6. Lee S.Y. Hur S.J. Antihypertensive peptides from animal products, marine organisms, and plants Food Chem. 2017 228 506 517 10.1016/j.foodchem.2017.02.039 28317757 ||| ref 25, 30, 31 = [25]; PMID 30229250; doi:10.1039/C8FO00569A; 25. Ling Y. Sun L.P. Zhuang Y.L. Preparation and identification of novel inhibitory angiotensin-I-converting enzyme peptides from tilapia skin gelatin hydrolysates: inhibition kinetics and molecular d || [30]; doi:10.1016/j.lwt.2018.12.059; 30. Bhaskara B. Ananthanarayana L. Jamdar S. Purification, identification, and characterization of novel angiotensin I converting enzyme (ACE) inhibitory peptides from alcalase digested horse gram flo || [31]; doi:10.1016/j.lwt.2016.08.047; 31. Wang X. Chen H. Fu X. Li S. Wei J. A novel antioxidant and ACE inhibitory peptide from rice bran protein: Biochemical characterization and molecular docking study LWT-Food Sci. Technol. 2017 75 93. The following applies: peptides from tilapia skin gelatin, horse gram protein, rice bran protein; read-out: IC50 of ACE-inhibitory activity; cited from earlier work. From the text: With the help of databases AHTPDB and BIOPEP, and based on the similarity to the already reported ACE-inhibitory and antioxidant peptides, three peptides, namely […]

Read-outs that look alike come from different tables or passages of the source. Where a SMILES comes first, the peptide text is derived from it.

The molecule `CC[C@H](C)[C@H](NC(=O)[C@@H](NC(=O)[C@H](CCC(N)=O)NC(=O)CNC(=O)[C@@H](N)CCCNC(=N)N)C(C)C)C(=O)N[C@@H](Cc1ccc(O)cc1)C(=O)N[C@H](C(=O)N[C@@H](CC(C)C)C(=O)O)C(C)C` (H-RGQVIYVL-OH) registered a half-inhibitory concentration (IC50) against ACE (from rabbit lung) of 38.2 µM. In data set [1], the “Side effect on SHRs (heart rate and body weight vs negative control)” value is given as “no obvious side effect”. “HPLDSLCL [literature antioxidant peptide]”: the IC50 in data set [2] is 74.4 µM.

For “Leu-Ala-Arg-Leu [literature peptide from tilapia gelatin]”, the “Fe2+ chelating ability” value in data set [3] (at 1 mg/mL, peptide from tilapia gelatin) is 46.53%. Take QLLLQQ: the IC50 with ACE is 75 µM. As to VGLPNSR, the IC50 with ACE is 80.9 µM. On to “VTSLDLPVLRW [literature antioxidant peptide]”, for which the IC50 in data set [2] is 661 µM. On to “YYIVS [literature peptide from sweet potato protein]”, for which the “Fe2+ chelating ability” value in data set [3] (at 3 mg/mL, peptide from sweet potato protein) is 59.74%.

As a reminder, the IC50 is the concentration needed to halve the response being measured.
